Reference: PubChem BioAssay AID2060605 (Molecular Pharmacology Branch, DTP, NCI, 2025)

Test system: 947758-054-R-J2-PDC spheroid growth, percent test/control
Assay: Anticancer human tumor 947758-054-R-J2-PDC patient-derived colon adenocarcinoma cell line growth inhibition [CLK]
Settings: spheroids with HUVEC and MSC; for IC50: curve of first compound; for viability, T/C: stronger effect = lower value
How it was run: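 Multi-cell-type spheroids combined patient-derived tumor cells with HUVEC endothelial cells and human mesenchymal stem cells. Paired agents were dosed in half-log steps down from about clinical Cmax, or from 10 microM where Cmax was unknown.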

[1] = second compound 0.0316 µM, first compound 0.0316 µM
[2] = second compound 0.0316 µM, first compound 0.1 µM
[3] = second compound 0.0316 µM, first compound 0.316 µM
[4] = second compound 0.0316 µM, first compound 1 µM
[5] = second compound 0.0316 µM, first compound 3.16 µM
[6] = second compound 0.0316 µM, first compound 10 µM
[7] = second compound 0.1 µM, first compound 0.0316 µM
[8] = second compound 0.1 µM, first compound 0.1 µM
[9] = second compound 0.1 µM, first compound 0.316 µM
[10] = second compound 0.1 µM, first compound 1 µM
[11] = second compound 0.1 µM, first compound 3.16 µM
[12] = second compound 0.1 µM, first compound 10 µM
[13] = second compound 0.316 µM, first compound 0.0316 µM
[14] = second compound 0.316 µM, first compound 0.1 µM
[15] = second compound 0.316 µM, first compound 0.316 µM
[16] = second compound 0.316 µM, first compound 1 µM
[17] = second compound 0.316 µM, first compound 3.16 µM
[18] = second compound 0.316 µM, first compound 10 µM
[19] = second compound 1 µM, first compound 0.0316 µM
[20] = second compound 1 µM, first compound 0.1 µM
[21] = second compound 1 µM, first compound 0.316 µM
[22] = second compound 1 µM, first compound 1 µM
[23] = second compound 1 µM, first compound 3.16 µM
[24] = second compound 1 µM, first compound 10 µM
[25] = second compound 3.16 µM, first compound 0.0316 µM
[26] = second compound 3.16 µM, first compound 0.1 µM
[27] = second compound 3.16 µM, first compound 0.316 µM
[28] = second compound 3.16 µM, first compound 1 µM
[29] = second compound 3.16 µM, first compound 3.16 µM
[30] = second compound 3.16 µM, first compound 10 µM
[31] = second compound 10 µM, first compound 0.0316 µM
[32] = second compound 10 µM, first compound 0.1 µM
[33] = second compound 10 µM, first compound 0.316 µM
[34] = second compound 10 µM, first compound 1 µM
[35] = second compound 10 µM, first compound 3.16 µM
[36] = second compound 10 µM, first compound 10 µM
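Note: spheroids exposed to compounds for one week before readout.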
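Throughout, for viability, T/C: 100% = DMSO vehicle control wells.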

## CC1(C)CCC(CN2CCN(c3ccc(C(=O)NS(=O)(=O)c4ccc(NCC5CCOCC5)c([N+](=O)[O-])c4)c(Oc4cnc5[nH]ccc5c4)c3)CC2)=C(c2ccc(Cl)cc2)C1 + CN1CCN(c2cc(C(=O)Nc3cc4cc(-c5cnn(C)c5)ccc4cn3)ccn2)CC1
Second compound 0.0316 µM
  IC50: 5540 nM
Second compound 0.1 µM
  IC50: 6730 nM
Second compound 0.316 µM
  IC50: < 31.6 nM
Second compound 1 µM
  IC50: < 31.6 nM
Second compound 3.16 µM
  IC50: < 31.6 nM
Second compound 10 µM
  IC50: < 31.6 nM
[1]
  viability, T/C: 106%
[2]
  viability, T/C: 142%
[3]
  viability, T/C: 113%
[4]
  viability, T/C: 86.5%
[5]
  viability, T/C: 101%
[6]
  viability, T/C: 6.09%
[7]
  viability, T/C: 174%
[8]
  viability, T/C: 220%
[9]
  viability, T/C: 181%
[10]
  viability, T/C: 178%
[11]
  viability, T/C: 139%
[12]
  viability, T/C: 2.94%
[13]
  viability, T/C: 4.83%
[14]
  viability, T/C: 6.64%
[15]
  viability, T/C: 4.64%
[16]
  viability, T/C: 5.62%
[17]
  viability, T/C: 4.76%
[18]
  viability, T/C: 2.09%
[19]
  viability, T/C: 0.18%
[20]
  viability, T/C: 2.13%
[21]
  viability, T/C: 1.78%
[22]
  viability, T/C: 0.17%
[23]
  viability, T/C: 1.22%
[24]
  viability, T/C: 0.59%
[25]
  viability, T/C: 0.97%
[26]
  viability, T/C: 1.19%
[27]
  viability, T/C: 0.31%
[28]
  viability, T/C: 0.2%
[29]
  viability, T/C: 0.16%
[30]
  viability, T/C: 3.63%
[31]
  viability, T/C: 0.86%
[32]
  viability, T/C: 3.93%
[33]
  viability, T/C: 1.09%
[34]
  viability, T/C: 0.43%
[35]
  viability, T/C: 0.52%
[36]
  viability, T/C: 0.32%

## CC1COCCN1c1cc(C2(S(C)(=N)=O)CC2)nc(-c2ccnc3[nH]ccc23)n1 (stereo unspecified) + CN1CCN(c2cc(C(=O)Nc3cc4cc(-c5cnn(C)c5)ccc4cn3)ccn2)CC1
Second compound 0.0316 µM
  IC50: 8190 nM
Second compound 0.1 µM
  IC50: 4290 nM
Second compound 0.316 µM
  IC50: < 31.6 nM
Second compound 1 µM
  IC50: < 31.6 nM
Second compound 3.16 µM
  IC50: < 31.6 nM
Second compound 10 µM
  IC50: < 31.6 nM
[1]
  viability, T/C: 129%
[2]
  viability, T/C: 130%
[3]
  viability, T/C: 147%
[4]
  viability, T/C: 208%
[5]
  viability, T/C: 174%
[6]
  viability, T/C: 27.1%
[7]
  viability, T/C: 156%
[8]
  viability, T/C: 161%
[9]
  viability, T/C: 134%
[10]
  viability, T/C: 111%
[11]
  viability, T/C: 59.6%
[12]
  viability, T/C: 20.6%
[13]
  viability, T/C: 4.56%
[14]
  viability, T/C: 7.68%
[15]
  viability, T/C: 5.32%
[16]
  viability, T/C: 4.07%
[17]
  viability, T/C: 7.49%
[18]
  viability, T/C: 2.19%
[19]
  viability, T/C: 0.17%
[20]
  viability, T/C: 0.18%
[21]
  viability, T/C: 0.17%
[22]
  viability, T/C: 2.01%
[23]
  viability, T/C: 2.61%
[24]
  viability, T/C: 0.13%
[25]
  viability, T/C: 0.74%
[26]
  viability, T/C: 0.2%
[27]
  viability, T/C: 0.39%
[28]
  viability, T/C: 1.46%
[29]
  viability, T/C: 1.04%
[30]
  viability, T/C: 0.96%
[31]
  viability, T/C: 1.2%
[32]
  viability, T/C: 0.28%
[33]
  viability, T/C: 1.41%
[34]
  viability, T/C: 1.13%
[35]
  viability, T/C: 1.09%
[36]
  viability, T/C: 0.51%

## NC(=O)C(=Cn1cnc(-c2cc(C(F)(F)F)cc(C(F)(F)F)c2)n1)c1cncnc1 + CN1CCN(c2cc(C(=O)Nc3cc4cc(-c5cnn(C)c5)ccc4cn3)ccn2)CC1
Second compound 0.0316 µM
  IC50: 78.5 nM
Second compound 0.1 µM
  IC50: < 9.49 nM
Second compound 0.316 µM
  IC50: < 9.49 nM
Second compound 1 µM
  IC50: < 9.49 nM
Second compound 3.16 µM
  IC50: < 9.49 nM
Second compound 10 µM
  IC50: < 9.49 nM
Second compound 0.0316 µM, first compound 0.00949 µM
  viability, T/C: 195%
Second compound 0.0316 µM, first compound 0.03 µM
  viability, T/C: 224%
Second compound 0.0316 µM, first compound 0.0949 µM
  viability, T/C: 44.3%
Second compound 0.0316 µM, first compound 0.3 µM
  viability, T/C: 19%
Second compound 0.0316 µM, first compound 0.949 µM
  viability, T/C: 10.3%
Second compound 0.0316 µM, first compound 3 µM
  viability, T/C: 0.87%
Second compound 0.1 µM, first compound 0.00949 µM
  viability, T/C: 42.9%
Second compound 0.1 µM, first compound 0.03 µM
  viability, T/C: 24.9%
Second compound 0.1 µM, first compound 0.0949 µM
  viability, T/C: 16.4%
Second compound 0.1 µM, first compound 0.3 µM
  viability, T/C: 6.99%
Second compound 0.1 µM, first compound 0.949 µM
  viability, T/C: 0.38%
Second compound 0.1 µM, first compound 3 µM
  viability, T/C: 0.42%
Second compound 0.316 µM, first compound 0.00949 µM
  viability, T/C: 0.44%
Second compound 0.316 µM, first compound 0.03 µM
  viability, T/C: 0.27%
Second compound 0.316 µM, first compound 0.0949 µM
  viability, T/C: 0.21%
Second compound 0.316 µM, first compound 0.3 µM
  viability, T/C: 1.5%
Second compound 0.316 µM, first compound 0.949 µM
  viability, T/C: 0.15%
Second compound 0.316 µM, first compound 3 µM
  viability, T/C: 0.3%
Second compound 1 µM, first compound 0.00949 µM
  viability, T/C: 0.13%
Second compound 1 µM, first compound 0.03 µM
  viability, T/C: 0.18%
Second compound 1 µM, first compound 0.0949 µM
  viability, T/C: 0.39%
Second compound 1 µM, first compound 0.3 µM
  viability, T/C: 0.33%
Second compound 1 µM, first compound 0.949 µM
  viability, T/C: 1.84%
Second compound 1 µM, first compound 3 µM
  viability, T/C: 0.25%
Second compound 3.16 µM, first compound 0.00949 µM
  viability, T/C: 0.31%
Second compound 3.16 µM, first compound 0.03 µM
  viability, T/C: 0.76%
Second compound 3.16 µM, first compound 0.0949 µM
  viability, T/C: 0.81%
Second compound 3.16 µM, first compound 0.3 µM
  viability, T/C: 0.66%
Second compound 3.16 µM, first compound 0.949 µM
  viability, T/C: 1.31%
Second compound 3.16 µM, first compound 3 µM
  viability, T/C: 1.56%
Second compound 10 µM, first compound 0.00949 µM
  viability, T/C: 0.47%
Second compound 10 µM, first compound 0.03 µM
  viability, T/C: 0.74%
Second compound 10 µM, first compound 0.0949 µM
  viability, T/C: 1.04%
Second compound 10 µM, first compound 0.3 µM
  viability, T/C: 0.9%
Second compound 10 µM, first compound 0.949 µM
  viability, T/C: 1.38%
Second compound 10 µM, first compound 3 µM
  viability, T/C: 0.53%
